Data: article PMC5007978, “A chemical with proven clinical safety rescues Down-syndrome-related phenotypes in through DYRK1A inhibition” (Disease Models & Mechanisms, 2016)

Key:
[1] = tested on: mnb-overexpressing Drosophila; assay: Embryonic neurological phenotype with pan-neuronal mnb overexpression (elav::synGFP); type: in vivo
From the text: (§1) The expression of human Tau in Drosophila retinal tissue (GMR>Tau) produced a small rough eye phenotype (GMR>Tau in Fig. 6A and B), as described previously ([Jackson et al., 2002]). […] Pan-neuronal mnb overexpression (elav::synGFP>mnb) caused severe neurogenic defects in both the central and peripheral nervous system during embryogenesis [elav::synGFP>mnb (DMSO) in Fig. 6C]. […] Moreover, the viability of adult flies with the neuronal overexpression of mnb was examined. Pan-neuronal overexpression of mnb caused high rates of mortality in adult flies (∼70%, Fig. 6D).
(§2) Fig. 6. CX-4945 rescues neurological and phenotypic defects in an mnb-overexpressing Drosophila model. (A) The eyes of adult flies overexpressing mnb and/or human Tau under the control of the eye-specific GMR-Gal4 driver, and of control flies bearing only GMR-Gal4. Overexpression of mnb aggravated the eye abnormality induced by Tau overexpression. […] White dashed lines outline the eye contour. (B) The retinal surface areas were measured on multiple samples (n>10) from each genotype, and average eye sizes were presented as normalized percentages of the DMSO-treated GMR-Gal4 control. (C) The brain cortex, primary neuronal cell clusters and axon bundle, as visualized with GFP (green) using UAS-Synaptobrevin-GFP driven by elav-Gal4 at the late embryonic stage 18. […]

[2] = tested on: calcineurin-NFAT signaling; assay: Flag-NFATc1 localization by immunofluorescence in 293T cells; type: cell-based; conditions: 10 μM, 293T cells with overexpressed DYRK1A, ionomycin 5 μM
From the text: Flag-NFATc1 remained predominantly in the cytosol when expressed in 293T cells (Mock, Fig. 5A). Upon the addition of the calcium ionophore ionomycin (IM), Flag-NFATc1 was translocated into the nucleus (Fig. 5A, IM) as a result of NFATc1 dephosphorylation by activated calcineurin. Overexpression of DYRK1A relocalized Flag-NFATc1 into the cytoplasm, even in the presence of ionomycin owing to the opposing action of DYRK1A on NFATc1 phosphorylation, which is consistent with its negative regulatory role in the calcineurin-NFAT pathway (Fig. 5A, DYRK1A+IM).
Fig. 5. […] Firefly luciferase activities were measured using One-Glo reagents. Luciferase activity in the sample with reporter plasmid alone was set to 1, and the relative luciferase activities were calculated. Means±s.d. were determined from two independent experiments.
293T cells were seeded into 8-well chambered coverslips (Ibidi) and transfected with a plasmid expressing Flag-NFATc1. […] Cells were fixed with 4% paraformaldehyde in PBS for 10 min at room temperature, followed by permeabilization with 0.1% Triton X-100, and then subjected to immunofluorescence staining with anti-Flag (1:500) antibody for 2 h. Cells were then washed with cold PBS three times for 3 min each, incubated with Alexa-Fluor-488-conjugated anti-rabbit IgG (1:800) (Invitrogen) at room temperature for 1 h and then examined under a fluorescence microscope.

[3] = tested on: mnb-overexpressing Drosophila; assay: Adult lethality with pan-neuronal mnb overexpression; type: in vivo, Drosophila melanogaster; conditions: parent flies fed 100 nM, n=100 per group
From the text: as §1, §2

DYRK3 = biological target: T1, DYRK3 (Homo sapiens, UniProt O43781); assay: In vitro kinase assay, recombinant human DYRK3 (Life Technologies); type: biochemical
T1 construct: purchased Life Technologies (Kinase Profiler service)
T1 sequence (O43781 1-588): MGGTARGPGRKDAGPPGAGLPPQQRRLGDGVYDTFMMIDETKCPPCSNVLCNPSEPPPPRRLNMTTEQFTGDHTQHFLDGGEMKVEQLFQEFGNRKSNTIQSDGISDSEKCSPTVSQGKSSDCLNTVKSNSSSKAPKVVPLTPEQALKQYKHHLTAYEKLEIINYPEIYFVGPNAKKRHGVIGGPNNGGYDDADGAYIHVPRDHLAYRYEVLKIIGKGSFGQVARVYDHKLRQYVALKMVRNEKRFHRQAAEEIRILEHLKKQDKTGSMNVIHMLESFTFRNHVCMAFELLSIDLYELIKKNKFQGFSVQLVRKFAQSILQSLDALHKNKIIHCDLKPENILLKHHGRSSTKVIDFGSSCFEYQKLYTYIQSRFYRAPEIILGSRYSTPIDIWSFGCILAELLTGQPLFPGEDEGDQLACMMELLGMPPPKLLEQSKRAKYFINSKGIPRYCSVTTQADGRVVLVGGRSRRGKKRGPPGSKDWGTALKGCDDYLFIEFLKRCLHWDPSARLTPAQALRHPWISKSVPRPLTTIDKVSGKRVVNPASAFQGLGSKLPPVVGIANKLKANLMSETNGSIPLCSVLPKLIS

[4] = tested on: mnb-overexpressing Drosophila; assay: Wing vein (LV5) defect rescue in mnb-overexpressing flies (MS1096-gal4); type: in vivo, Drosophila melanogaster; conditions: larvae fed for 2 weeks
[5] = tested on: mnb-overexpressing Drosophila; assay: Eye phenotype in flies overexpressing human Tau with or without mnb (GMR-Gal4); type: in vivo, Drosophila melanogaster; conditions: feeding with 100 nM, GMR>Tau and GMR>mnb+Tau
From the text: as §1
Fig. 6. CX-4945 rescues neurological and phenotypic defects in an mnb-overexpressing Drosophila model. […] (B) The retinal surface areas were measured on multiple samples (n>10) from each genotype, and average eye sizes were presented as normalized percentages of the DMSO-treated GMR-Gal4 control. […]
Drosophila melanogaster were cultured at 25°C on standard cornmeal medium. […] For defining optimal concentration of chemical inhibitors, 50 embryos of each genotype were raised on drug-containing food (0, 1 nM, 10 nM, 100 nM, 1 µM, 10 µM and 25 µM in 0.05% DMSO) and allowed to develop to adulthood (viability assay and wing vein quantification assay). […] Fly eye sizes were measured on multiple samples (n>10) from each genotype using the National Institutes of Health ImageJ software. […]

Question: How did the “effect on control flies lacking mnb overexpression” value ([1]; 100 nM, elav::synGFP>control) turn out when `O=C(O)c1ccc2c(c1)nc(Nc1cccc(Cl)c1)c1ccncc12` [CX-4945] was run?
Answer: little noticeable effect

Question: And the “neurogenic defects of mnb-overexpressing embryos” value ([1]; parent flies fed 100 nM, elav::synGFP>mnb)?
Answer: restored these neurogenic defects

Question: And the “nuclear translocation of Flag-NFATc1” value [2]?
Answer: effectively induced the nuclear translocation

Question: And the “reduction of mortality of the progeny” value [3]?
Answer: more than 70%

Question: What about the IC50 (DYRK3) of the same compound?
Answer: 18 nM

Question: What about the “concentration giving apparent rescue of wing (LV5) defect” value [4] of the same compound?
Answer: 10 to 100 nM

Question: What about the “eye defects induced by overexpression of Tau alone or with mnb” value [5] of the same compound?
Answer: significantly mitigated
